In ChEMBL document CHEMBL4311946, “Mechanistic Insight on the Mode of Action of Colletoic Acid” (J Med Chem, 2019):
Calls of active or inactive are those of the source. The calls are words filed in the database; no cut-off is given here.

Key:
[1] = target: 11-beta-hydroxysteroid dehydrogenase 1 (Homo sapiens, UniProt P28845, C272S); experiment: Inhibition of N-terminal MKHQHQHQHQHQHQQPL-tagged 11beta-HSD1 C272S mutant (unknown origin) expressed in Escherichia coli BL21 (DE3) using cortisol as substrate measured for 1 hr in presence of NADPH by fluorescence assay
[2] = target: T1, 11-beta-hydroxysteroid dehydrogenase type 2 (Homo sapiens, UniProt P80365); experiment: Inhibition of 11beta-HSD2 (unknown origin) expressed in HEK293 cells using cortisone as substrate measured after 2 hrs in presence of NAD+ by HTRF assay; assay type: ADME, cell-based
T1 sequence (P80365 whole entry): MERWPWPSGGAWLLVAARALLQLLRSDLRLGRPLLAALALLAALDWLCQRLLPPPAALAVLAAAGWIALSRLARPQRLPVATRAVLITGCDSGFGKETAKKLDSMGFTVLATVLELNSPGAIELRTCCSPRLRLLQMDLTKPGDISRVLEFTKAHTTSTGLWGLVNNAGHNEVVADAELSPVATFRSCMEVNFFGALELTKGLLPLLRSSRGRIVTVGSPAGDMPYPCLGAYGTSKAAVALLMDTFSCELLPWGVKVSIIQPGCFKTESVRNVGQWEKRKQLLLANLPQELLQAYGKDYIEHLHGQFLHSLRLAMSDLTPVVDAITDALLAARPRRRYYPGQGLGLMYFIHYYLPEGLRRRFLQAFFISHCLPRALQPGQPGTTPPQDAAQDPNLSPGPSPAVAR

3T3-L1 [3] = experiment: Cytotoxicity against mouse 3T3L1 cells measured after 72 hrs by celltiter-glo luminescent cell viability assay; assay type: ADME, cell-based; details: 3T3-L1, 72 h
3T3-L1 [4] = experiment: Cytotoxicity against mouse 3T3L1 preadipocytes up to 1 mM measured after 72 hrs under non-differentiating medium by celltiter-glo luminescent cell viability assay; assay type: cell-based; details: 3t3-l1, 72 h
3T3-L1 [5] = experiment: Cytotoxicity against mouse 3T3L1 cells up to 1 mM measured after 72 hrs under induction medium containing dehydrocorticosterone/cortisone by celltiter-glo luminescent cell viability assay; assay type: cell-based; details: 3t3-l1, 72 h
3T3-L1 [6] = experiment: Cell cycle arrest in mouse 3T3L1 cells up to 1 mM measured after 24 hrs under induction medium containing dehydrocorticosterone/cortisone by propidium iodide staining-based flow cytometry; assay type: ADME; details: 3t3-l1, 24 h
3T3-L1 [7] = experiment: Inhibition of cell differentiation in mouse 3T3L1 cells assessed as reduction in pre-adipocyte differentiation into matured adipocytes at 50 uM incubated for 48 hrs under induction medium containing dehydrocorticosterone/cortisone followed by shifting to differentiation medium and measured after 7 days by Oil red O staining-based microscopic analysis; assay type: functional
3T3-L1 [8] = experiment: Anti-adipogenic activity in mouse 3T3L1 preadipocytes assessed as restoration of cell morphology at 50 uM incubated for 48 hrs under induction medium containing dehydrocorticosterone/cortisone followed by shifting to differentiation medium and measured after 7 days by mitotracker red/lipidtox green staining-based confocal microscopic analysis; assay type: functional
Homo sapiens [9] = organism: Homo sapiens; experiment: (§1) Anti-adipogenic activity in human visceral preadipocytes assessed as reduction in pre-adipocyte differentiation into matured adipocytes at 50 uM incubated for 48 hrs under induction medium containing hydrocortisone hemi-succinate prior to compound washout followed by shifting to differentiation medium containing compound supplemented with fresh medium every 48 to 72 hrs for 9 to 14 days by oil red O staining-based microscopic analysis; assay type: functional, cell-based
3T3-L1 [10] = experiment: Anti-adipogenic activity in differentiated mouse 3T3L1 cells assessed as reduction in FABP4 mRNA expression at 50 to 100 uM measured after 2 to 7 days by SYBR green dye-based qRT-PCR analysis relative to control; assay type: functional
Homo sapiens [11] = organism: Homo sapiens; experiment: as §1, with “decrease” for “reduction”, “lipid accumulation” for “pre-adipocyte differentiation into matured adipocytes”; assay type: functional, cell-based
Homo sapiens [12] = organism: Homo sapiens; experiment: Anti-adipogenic activity in human visceral preadipocytes assessed as decrease in lipid accumulation at 50 uM measured after 3 days under induction medium containing hydrocortisone hemi-succinate by oil red O staining-based microscopic analysis; assay type: functional, cell-based
3T3-L1 [13] = experiment: Anti-adipogenic activity in mouse 3T3L1 preadipocytes assessed as reduction in C/EBPalpha mRNA expression at 50 to 100 uM measured daily for 2 days under induction media containing dehydrocorticosterone/cortisone by SYBR green dye-based qRT-PCR analysis; assay type: functional, cell-based
3T3-L1 [14] = experiment: Anti-adipogenic activity in mouse 3T3L1 preadipocytes assessed as reduction in C/EBPbeta mRNA expression at 50 to 100 uM measured daily for 2 days under induction media containing dehydrocorticosterone/cortisone by SYBR green dye-based qRT-PCR analysis; assay type: functional, cell-based
3T3-L1 [15] = experiment: Anti-adipogenic activity in mouse 3T3L1 preadipocytes assessed as reduction in C/EBPdelta mRNA expression at 50 to 100 uM measured daily for 2 days under induction media containing dehydrocorticosterone/cortisone by SYBR green dye-based qRT-PCR analysis; assay type: functional, cell-based
3T3-L1 [16] = experiment: Anti-adipogenic activity in differentiated mouse 3T3L1 cells assessed as reduction in Glut4 mRNA expression at 50 to 100 uM measured after 2 to 7 days by SYBR green dye-based qRT-PCR analysis; assay type: functional, cell-based
3T3-L1 [17] = experiment: Anti-adipogenic activity in differentiated mouse 3T3L1 cells assessed as reduction in FASN mRNA expression at 50 to 100 uM measured after 2 to 7 days by SYBR green dye-based qRT-PCR analysis relative to control; assay type: functional
3T3-L1 [18] = experiment: Anti-adipogenic activity in differentiated mouse 3T3L1 cells assessed as reduction in 11beta-HSD1 expression at 50 uM measured on day 3 by Western blot analysis; assay type: functional, cell-based
3T3-L1 [19] = experiment: Anti-adipogenic activity in differentiated mouse 3T3L1 cells assessed as reduction in PPARgamma expression at 50 uM measured on day 3 by Western blot analysis; assay type: functional, cell-based
3T3-L1 [20] = experiment: Anti-adipogenic activity in differentiated mouse 3T3L1 cells assessed as reduction in PGC1alpha expression at 50 uM measured on day 3 by Western blot analysis; assay type: functional, cell-based
3T3-L1 [21] = experiment: Anti-adipogenic activity in differentiated mouse 3T3L1 cells assessed as reduction in PPARgamma expression at 50 uM measured on day 7 by Western blot analysis; assay type: functional, cell-based
3T3-L1 [22] = experiment: Anti-adipogenic activity in differentiated mouse 3T3L1 cells assessed as reduction in PGC1alpha expression at 50 uM measured on day 7 by Western blot analysis; assay type: functional, cell-based
3T3-L1 [23] = experiment: Effect on total GR expression in differentiated mouse 3T3L1 cells at 50 uM measured on day 3 and 7 by Western blot analysis; assay type: ADME, cell-based; details: 3t3-l1, 50 µM
3T3-L1 [24] = experiment: Anti-adipogenic activity in differentiated mouse 3T3L1 cells assessed as reduction in mitochondrial mass at 50 uM measured on day 7 by mitotracker deep red/hoechst 33342 staining-based confocal imaging analysis; assay type: functional, cell-based
Fibroblast [25] = experiment: Effect on nascent protein synthesis in mouse fibroblasts assessed as reduction in O-Propargyl-puromycin incorporation at 50 uM measured after 2 hrs by fluorescent azide/pico green dye-based confocal microscopic analysis; assay type: ADME, cell-based
Fibroblast [26] = experiment: Effect on nascent protein synthesis in mouse fibroblasts assessed as reduction in O-Propargyl-puromycin incorporation at 50 uM by fluorescent azide/pico green dye-based confocal microscopic analysis; assay type: ADME, cell-based
[27] = Stability in mouse plasma; assay type: ADME, cell-free
[28] = Half life in simulated gastric fluid; assay type: ADME
[29] = Volume of distribution at steady state in C57BL6 mouse at 5 to 30 mg/kg, iv by LC-MS analysis; assay type: ADME, organism-based; details: in vivo
[30] = target: 11-beta-hydroxysteroid dehydrogenase 1 (Homo sapiens, UniProt P28845); experiment: Inhibition of 11beta-HSD1 in human microsomes using [3H] cortisone as substrate by scintillation proximity assay
Sequence of 11-beta-hydroxysteroid dehydrogenase 1 (Homo sapiens, UniProt P28845) (P28845 whole entry): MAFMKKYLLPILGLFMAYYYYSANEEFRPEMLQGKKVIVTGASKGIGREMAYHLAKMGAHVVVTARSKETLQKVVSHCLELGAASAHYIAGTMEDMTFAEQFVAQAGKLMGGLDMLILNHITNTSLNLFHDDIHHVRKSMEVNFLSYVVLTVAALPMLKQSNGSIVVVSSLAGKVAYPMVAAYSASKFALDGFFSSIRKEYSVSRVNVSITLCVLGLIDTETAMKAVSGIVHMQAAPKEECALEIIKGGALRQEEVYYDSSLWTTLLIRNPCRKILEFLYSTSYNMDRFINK

Sequence of 11-beta-hydroxysteroid dehydrogenase 1 (Homo sapiens, UniProt P28845, C272S) (P28845 whole entry C272S): as the sequence (P28845 whole entry) above, with C272S counted along it

IC50 [1]: 4.1 µM
IC50 [2]: > 500 µM
Stability [27]: Unstable
half-life [28]: < 2 h
Vdss [29]: 0.247 L/kg
IC50 [30]: 0.013 µM
Compound: CC1=CC[C@@]2(C[C@@H]1O)[C@@H](C(=O)O)CC[C@H]2C(C)C
EC50 (3T3-L1 [3]): > 500 µM
Activity (3T3-L1 [4]): Non-Toxic
Activity (3T3-L1 [5]): Non-Toxic
Activity (3T3-L1 [6]): Non-Toxic
inhibition (3T3-L1 [7]): Active
Activity (3T3-L1 [8]): Active
Activity (Homo sapiens [9]): Active
fold change (FC) (3T3-L1 [10]): <10
Activity (Homo sapiens [11]): Active
Activity (Homo sapiens [12]): inactive
Activity (3T3-L1 [13]): Active
Activity (3T3-L1 [14]): Active
Activity (3T3-L1 [15]): Active
Activity (3T3-L1 [16]): Active
fold change (FC) (3T3-L1 [17]): <10
Activity (3T3-L1 [18]): inactive
Activity (3T3-L1 [19]): inactive
Activity (3T3-L1 [20]): inactive
Activity (3T3-L1 [21]): Active
Activity (3T3-L1 [22]): Active
Activity (3T3-L1 [23]): Non-Toxic
Activity (3T3-L1 [24]): Active
Activity (Fibroblast [25]): Non-Toxic
Activity (Fibroblast [26]): Non-Toxic
